Among the data in ChEMBL document CHEMBL1770059, “Identification of chemicals to inhibit the kinase activity of leucine-rich repeat kinase 2 (LRRK2), a Parkinson's disease-associated protein” (Bioorg Med Chem Lett, 2011) are Activity and inhibition values, retold here.

Activity calls are given as the source filed them. No cut-off for these calls is given here.

Experiment [1] deals with T1, Serine/threonine-protein kinase TAO2 (Homo sapiens) (UniProt Q9UL54).
T1 sequence (whole entry): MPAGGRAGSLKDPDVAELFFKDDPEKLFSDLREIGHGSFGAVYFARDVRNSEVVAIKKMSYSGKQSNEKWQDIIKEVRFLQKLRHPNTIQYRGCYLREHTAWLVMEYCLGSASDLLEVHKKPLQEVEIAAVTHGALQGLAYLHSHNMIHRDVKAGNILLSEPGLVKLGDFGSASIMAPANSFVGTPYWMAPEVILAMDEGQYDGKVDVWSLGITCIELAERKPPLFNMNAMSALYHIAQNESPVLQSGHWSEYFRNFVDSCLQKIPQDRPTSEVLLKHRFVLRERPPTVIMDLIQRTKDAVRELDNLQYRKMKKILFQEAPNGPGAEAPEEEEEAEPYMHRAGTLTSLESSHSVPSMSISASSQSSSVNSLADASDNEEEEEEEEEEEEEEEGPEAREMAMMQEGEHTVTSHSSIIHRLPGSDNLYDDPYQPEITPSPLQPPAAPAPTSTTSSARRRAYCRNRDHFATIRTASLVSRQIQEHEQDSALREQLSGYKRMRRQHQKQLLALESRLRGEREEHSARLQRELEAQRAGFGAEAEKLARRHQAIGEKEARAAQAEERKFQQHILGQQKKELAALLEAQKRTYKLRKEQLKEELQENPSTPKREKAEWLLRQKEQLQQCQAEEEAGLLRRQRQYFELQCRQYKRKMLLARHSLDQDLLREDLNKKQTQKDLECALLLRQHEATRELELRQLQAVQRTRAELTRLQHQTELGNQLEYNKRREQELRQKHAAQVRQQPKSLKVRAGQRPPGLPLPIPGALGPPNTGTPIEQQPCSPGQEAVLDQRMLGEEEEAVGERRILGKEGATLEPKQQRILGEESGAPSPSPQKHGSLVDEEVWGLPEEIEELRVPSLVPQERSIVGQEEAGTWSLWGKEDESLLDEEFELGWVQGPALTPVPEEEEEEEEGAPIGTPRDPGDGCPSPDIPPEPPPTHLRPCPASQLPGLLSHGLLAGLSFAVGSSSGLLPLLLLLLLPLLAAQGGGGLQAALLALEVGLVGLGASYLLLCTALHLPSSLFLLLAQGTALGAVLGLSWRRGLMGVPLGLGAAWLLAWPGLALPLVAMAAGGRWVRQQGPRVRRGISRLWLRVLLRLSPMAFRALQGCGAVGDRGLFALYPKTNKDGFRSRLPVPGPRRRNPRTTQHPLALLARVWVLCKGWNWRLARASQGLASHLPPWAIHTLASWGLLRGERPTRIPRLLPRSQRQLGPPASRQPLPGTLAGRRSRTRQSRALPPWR
Briefly: Inhibition of TAO2 assessed as residual activity of enzyme at 10 uM.

Experiment [2] deals with Glycogen synthase kinase-3 beta (Homo sapiens) (UniProt P49841). Briefly: Inhibition of GSK3-beta assessed as residual activity of enzyme at 25 uM.
Sequence of Glycogen synthase kinase-3 beta (Homo sapiens) (P49841 whole entry, looked up): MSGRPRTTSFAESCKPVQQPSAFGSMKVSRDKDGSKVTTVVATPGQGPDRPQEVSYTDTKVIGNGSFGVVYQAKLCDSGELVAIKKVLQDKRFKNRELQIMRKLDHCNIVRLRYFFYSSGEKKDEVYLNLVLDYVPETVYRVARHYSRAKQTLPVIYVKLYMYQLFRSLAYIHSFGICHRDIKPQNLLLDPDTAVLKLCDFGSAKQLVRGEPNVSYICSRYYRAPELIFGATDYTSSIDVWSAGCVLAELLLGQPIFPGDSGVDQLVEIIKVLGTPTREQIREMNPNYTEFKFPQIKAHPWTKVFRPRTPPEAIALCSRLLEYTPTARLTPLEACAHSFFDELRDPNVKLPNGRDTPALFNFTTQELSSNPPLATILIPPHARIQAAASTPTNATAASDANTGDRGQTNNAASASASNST
Experiment [3] concerns Leucine-rich repeat serine/threonine-protein kinase 2 (Homo sapiens), Q5S007 [G2019S]. Put plainly: Inhibition of purified N-terminal GST-tagged LRRK2 G2019S mutant autophosphorylation activity using myelin basic protein as substrate at 25 uM.
Sequence of Leucine-rich repeat serine/threonine-protein kinase 2 (Homo sapiens), Q5S007 [G2019S] (Q5S007 whole entry G2019S): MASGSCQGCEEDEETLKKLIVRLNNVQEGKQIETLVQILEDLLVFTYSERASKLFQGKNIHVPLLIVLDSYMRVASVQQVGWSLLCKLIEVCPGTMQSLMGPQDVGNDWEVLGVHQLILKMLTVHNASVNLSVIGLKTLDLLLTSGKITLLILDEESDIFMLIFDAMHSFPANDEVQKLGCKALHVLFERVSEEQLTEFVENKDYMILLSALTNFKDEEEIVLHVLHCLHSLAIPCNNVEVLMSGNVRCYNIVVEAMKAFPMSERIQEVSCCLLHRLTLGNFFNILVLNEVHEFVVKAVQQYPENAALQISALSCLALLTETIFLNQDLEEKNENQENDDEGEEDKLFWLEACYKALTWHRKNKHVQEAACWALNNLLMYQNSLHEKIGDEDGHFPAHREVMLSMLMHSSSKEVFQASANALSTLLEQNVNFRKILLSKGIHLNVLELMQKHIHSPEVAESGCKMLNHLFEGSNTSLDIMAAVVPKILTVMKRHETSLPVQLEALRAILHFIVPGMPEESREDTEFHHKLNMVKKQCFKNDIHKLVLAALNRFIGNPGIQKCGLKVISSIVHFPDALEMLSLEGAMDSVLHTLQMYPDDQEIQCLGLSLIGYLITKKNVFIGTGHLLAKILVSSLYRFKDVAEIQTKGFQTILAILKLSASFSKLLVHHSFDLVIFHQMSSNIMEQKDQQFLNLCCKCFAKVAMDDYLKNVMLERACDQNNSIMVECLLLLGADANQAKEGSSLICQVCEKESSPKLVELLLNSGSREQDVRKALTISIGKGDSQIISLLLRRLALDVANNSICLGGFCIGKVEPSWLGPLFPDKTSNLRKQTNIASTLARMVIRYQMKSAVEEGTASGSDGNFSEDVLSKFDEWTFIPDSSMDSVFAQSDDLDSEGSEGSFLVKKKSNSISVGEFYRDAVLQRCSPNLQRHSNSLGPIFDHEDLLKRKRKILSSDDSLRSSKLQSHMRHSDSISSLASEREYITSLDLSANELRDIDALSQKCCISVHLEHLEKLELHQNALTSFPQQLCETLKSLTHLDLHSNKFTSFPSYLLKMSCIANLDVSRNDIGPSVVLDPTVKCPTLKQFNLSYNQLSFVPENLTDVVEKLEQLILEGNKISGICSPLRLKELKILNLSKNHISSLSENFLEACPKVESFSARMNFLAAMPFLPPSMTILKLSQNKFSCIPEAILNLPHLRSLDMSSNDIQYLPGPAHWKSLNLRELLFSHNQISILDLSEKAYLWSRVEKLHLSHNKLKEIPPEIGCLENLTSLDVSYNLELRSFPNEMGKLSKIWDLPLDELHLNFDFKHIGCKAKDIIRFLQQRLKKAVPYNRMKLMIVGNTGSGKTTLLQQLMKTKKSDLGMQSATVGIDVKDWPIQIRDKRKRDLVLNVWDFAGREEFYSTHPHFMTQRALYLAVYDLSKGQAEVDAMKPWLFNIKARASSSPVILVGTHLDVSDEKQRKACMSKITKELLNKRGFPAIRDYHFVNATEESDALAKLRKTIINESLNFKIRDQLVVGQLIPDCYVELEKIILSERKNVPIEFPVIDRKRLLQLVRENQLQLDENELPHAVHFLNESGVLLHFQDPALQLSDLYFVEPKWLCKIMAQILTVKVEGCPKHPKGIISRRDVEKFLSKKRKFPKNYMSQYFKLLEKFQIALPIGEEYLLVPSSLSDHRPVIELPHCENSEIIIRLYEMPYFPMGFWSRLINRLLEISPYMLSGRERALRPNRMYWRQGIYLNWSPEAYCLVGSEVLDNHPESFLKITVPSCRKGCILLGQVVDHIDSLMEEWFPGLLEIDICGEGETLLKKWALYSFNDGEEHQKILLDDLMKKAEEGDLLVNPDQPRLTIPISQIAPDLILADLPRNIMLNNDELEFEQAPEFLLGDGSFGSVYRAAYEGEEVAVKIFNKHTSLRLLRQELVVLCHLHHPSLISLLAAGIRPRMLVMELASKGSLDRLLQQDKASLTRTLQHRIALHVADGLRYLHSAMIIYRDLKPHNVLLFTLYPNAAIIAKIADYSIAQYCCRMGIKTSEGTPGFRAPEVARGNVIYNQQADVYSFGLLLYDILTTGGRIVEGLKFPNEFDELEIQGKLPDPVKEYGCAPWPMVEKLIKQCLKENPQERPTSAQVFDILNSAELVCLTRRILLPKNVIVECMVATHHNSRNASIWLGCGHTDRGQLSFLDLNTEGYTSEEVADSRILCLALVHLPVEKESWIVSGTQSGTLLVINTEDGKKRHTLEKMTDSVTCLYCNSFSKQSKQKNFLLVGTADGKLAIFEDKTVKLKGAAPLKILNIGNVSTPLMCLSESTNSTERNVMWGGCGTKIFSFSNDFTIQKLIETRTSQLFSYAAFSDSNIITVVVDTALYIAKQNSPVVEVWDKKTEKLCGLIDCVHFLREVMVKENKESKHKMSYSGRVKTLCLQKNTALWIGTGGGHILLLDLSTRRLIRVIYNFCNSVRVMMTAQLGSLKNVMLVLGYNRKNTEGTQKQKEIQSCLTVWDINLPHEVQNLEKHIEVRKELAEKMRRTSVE
Experiment [4] deals with T2, Mitogen-activated protein kinase kinase kinase 7 (Homo sapiens) (UniProt O43318).
T2 sequence (whole entry): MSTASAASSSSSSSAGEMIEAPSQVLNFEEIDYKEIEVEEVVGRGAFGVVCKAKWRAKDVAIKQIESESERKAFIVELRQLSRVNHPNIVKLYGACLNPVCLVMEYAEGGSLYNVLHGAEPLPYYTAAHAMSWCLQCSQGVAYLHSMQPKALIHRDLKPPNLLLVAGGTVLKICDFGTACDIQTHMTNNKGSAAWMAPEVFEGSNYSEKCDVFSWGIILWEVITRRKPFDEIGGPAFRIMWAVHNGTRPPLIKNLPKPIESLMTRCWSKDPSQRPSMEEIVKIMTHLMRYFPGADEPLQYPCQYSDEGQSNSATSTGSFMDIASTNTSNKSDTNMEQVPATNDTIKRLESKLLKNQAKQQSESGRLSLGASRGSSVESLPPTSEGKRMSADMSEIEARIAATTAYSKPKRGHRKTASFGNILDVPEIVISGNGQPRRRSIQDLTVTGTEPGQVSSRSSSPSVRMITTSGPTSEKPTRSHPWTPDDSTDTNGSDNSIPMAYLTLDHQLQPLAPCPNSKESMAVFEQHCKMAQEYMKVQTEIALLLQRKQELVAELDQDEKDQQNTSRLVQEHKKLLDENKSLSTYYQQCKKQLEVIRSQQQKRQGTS
Put plainly: Inhibition of TAK1 assessed as residual activity of enzyme at 25 uM.

Experiment [5] concerns the target T1, Serine/threonine-protein kinase TAO2 (Homo sapiens). Put plainly: Inhibition of TAO2 assessed as residual activity of enzyme at 25 uM.
For experiment [6], the target named is T2, Mitogen-activated protein kinase kinase kinase 7 (Homo sapiens). Put plainly: Inhibition of TAK1 assessed as residual activity of enzyme at 10 uM.
In experiment [7] the target is RAF proto-oncogene serine/threonine-protein kinase (Homo sapiens) (UniProt P04049). Briefly: Inhibition of c-Raf assessed as residual activity of enzyme at 10 uM.
Sequence of RAF proto-oncogene serine/threonine-protein kinase (Homo sapiens) (P04049 whole entry): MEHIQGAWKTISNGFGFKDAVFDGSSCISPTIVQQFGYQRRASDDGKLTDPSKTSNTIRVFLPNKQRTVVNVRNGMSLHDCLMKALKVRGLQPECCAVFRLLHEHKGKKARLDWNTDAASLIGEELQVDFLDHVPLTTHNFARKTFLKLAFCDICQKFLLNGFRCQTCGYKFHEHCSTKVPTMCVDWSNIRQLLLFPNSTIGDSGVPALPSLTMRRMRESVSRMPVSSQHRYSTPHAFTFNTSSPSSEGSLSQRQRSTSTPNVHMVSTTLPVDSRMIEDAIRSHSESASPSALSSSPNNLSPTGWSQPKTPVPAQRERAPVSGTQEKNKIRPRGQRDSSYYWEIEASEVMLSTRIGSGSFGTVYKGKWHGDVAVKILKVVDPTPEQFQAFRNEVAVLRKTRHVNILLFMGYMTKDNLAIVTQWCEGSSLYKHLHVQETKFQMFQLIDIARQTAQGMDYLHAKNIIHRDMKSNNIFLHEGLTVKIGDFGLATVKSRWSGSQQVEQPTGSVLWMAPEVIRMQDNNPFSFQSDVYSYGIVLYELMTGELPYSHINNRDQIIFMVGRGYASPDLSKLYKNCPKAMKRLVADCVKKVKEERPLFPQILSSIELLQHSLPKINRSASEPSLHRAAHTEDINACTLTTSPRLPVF

Regarding `Cc1cc(N/N=C/c2ccncc2)nc2ccccc12`, the Activity turned out to be 89% in experiment [1]; 94% in experiment [2]; 48% in experiment [4]; 84% in experiment [5]; 68% in experiment [6]; 92% in experiment [7]. Moreover, the inhibition result in experiment [3] is “Active”.
